Experiments:
Assay in all cases: Test B pre-/postemergence plant response
Format in all cases: in vivo
[1] = tested on: Surinam grass (Brachiaria decumbens); details: for Surinam Grass plant response rating (0 to 100 scale): 62 g ai/ha, 0 is no effect, 13 to 15 days
Summary of the method: (§1)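 Seeds were sown in loam soil/sand blend and treated preemergence with compound in non-phytotoxic solvent mixture containing surfactant; postemergence sprays, same formulation, went onto plants 2 to 18 cm (1- to 4-leaf stage) in peat-based planting medium. Greenhouse 13 to 15 days, then visual rating versus untreated controls, 0 (no effect) to 100 (complete control).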

[2] = tested on: pigweed (Amaranthus retroflexus); details: for Pigweed plant response rating (0 to 100 scale): 62 g ai/ha, 0 is no effect, 13 to 15 days
Summary of the method: as §1

[3] = tested on: downy bromegrass (Bromus tectorum); details: for Bromegrass, Downy plant response rating (0 to 100 scale): 62 g ai/ha, 0 is no effect, 13 to 15 days
Summary of the method: as §1

[4] = tested on: green foxtail (Setaria viridis); details: for Foxtail, Green plant response rating (0 to 100 scale): 62 g ai/ha, 0 is no effect, 13 to 15 days
Summary of the method: as §1

[5] = tested on: large crabgrass (Digitaria sanguinalis); details: for Crabgrass, Large plant response rating (0 to 100 scale): 62 g ai/ha, 0 is no effect, 13 to 15 days
Summary of the method: as §1

[6] = tested on: ragweed (common ragweed, Ambrosia elatior); details: for Ragweed plant response rating (0 to 100 scale): 62 g ai/ha, 0 is no effect, 13 to 15 days
Summary of the method: as §1

[7] = tested on: Italian ryegrass (Lolium multiflorum); details: for Ryegrass, Italian plant response rating (0 to 100 scale): 62 g ai/ha, 0 is no effect, 13 to 15 days
Summary of the method: as §1

[8] = tested on: goosegrass (Eleusine indica); details: for Goosegrass plant response rating (0 to 100 scale): 62 g ai/ha, 0 is no effect, 13 to 15 days
Summary of the method: as §1

[9] = tested on: wheat (Triticum aestivum); details: for Wheat plant response rating (0 to 100 scale): 62 g ai/ha, 0 is no effect, 13 to 15 days
Summary of the method: as §1

[10] = tested on: velvetleaf (Abutilon theophrasti); details: for Velvetleaf plant response rating (0 to 100 scale): 62 g ai/ha, 0 is no effect, 13 to 15 days
Summary of the method: as §1

[11] = tested on: woolly cupgrass (Eriochloa villosa); details: for Cupgrass, Woolly plant response rating (0 to 100 scale): 62 g ai/ha, 0 is no effect, 13 to 15 days
Summary of the method: as §1

[12] = tested on: yellow nutsedge (Cyperus esculentus); details: for Nutsedge, Yellow plant response rating (0 to 100 scale): 62 g ai/ha, 0 is no effect, 13 to 15 days
Summary of the method: as §1

[13] = tested on: lambsquarters (Chenopodium album); details: for Lambsquarters plant response rating (0 to 100 scale): 62 g ai/ha, 0 is no effect, 13 to 15 days
Summary of the method: as §1

[14] = 31 g ai/ha, postemergence, scale 0 to 100, 0 is no effect, 100 is complete control
[15] = postemergence, 100 is complete control
[16] = Postemergence, 250 g ai/ha, scale 0 to 100 (0 no effect, 100 complete control)
[17] = Postemergence, 125 g ai/ha, visual rating after 13 to 15 days, scale 0 (no effect) to 100 (complete control)

CCCCCn1c(-c2ccccc2)ncc(C(=O)C2=C(O)CCCC2=O)c1=O [Compound 89]
Plant response rating, Surinam Grass [1, 14]: 55 | Surinam Grass plant response rating (0 to 100 scale) [1, 15]: 75 | Plant response rating, Surinam Grass [1, 16]: 95 | Plant response rating, Pigweed [2, 14]: 80 | Pigweed plant response rating (0 to 100 scale) [2, 15]: 98 | Plant response rating, Pigweed [2, 16]: 100 | Plant response rating, Bromegrass, Downy [3, 14]: 0 | Bromegrass, Downy plant response rating (0 to 100 scale) [3, 15]: 0 | Plant response rating, Bromegrass, Downy [3, 17]: 5 | Plant response rating, Bromegrass, Downy [3, 16]: 5 | Plant response rating, Foxtail, Green [4, 14]: 60 | Foxtail, Green plant response rating (0 to 100 scale) [4, 15]: 70 | Plant response rating, Foxtail, Green [4, 16]: 80 | Plant response rating, Crabgrass, Large [5, 14]: 85 | Crabgrass, Large plant response rating (0 to 100 scale) [5, 15]: 95 | Plant response rating, Crabgrass, Large [5, 17]: 95 | Plant response rating, Crabgrass, Large [5, 16]: 98 | Plant response rating, Ragweed [6, 14]: 70 | Ragweed plant response rating (0 to 100 scale) [6, 15]: 85 | Plant response rating, Ragweed [6, 16]: 100 | Plant response rating, Ryegrass, Italian [7, 14]: 0 | Ryegrass, Italian plant response rating (0 to 100 scale) [7, 15]: 5 | Plant response rating, Ryegrass, Italian [7, 16]: 30 | Plant response rating, Goosegrass [8, 14]: 55 | Goosegrass plant response rating (0 to 100 scale) [8, 15]: 65 | Plant response rating, Goosegrass [8, 16]: 80 | Plant response rating, Wheat [9, 14]: 0 | Wheat plant response rating (0 to 100 scale) [9, 15]: 5 | Plant response rating, Wheat [9, 16]: 10 | Plant response rating, Velvetleaf [10, 14]: 90 | Velvetleaf plant response rating (0 to 100 scale) [10, 15]: 95 | Plant response rating, Velvetleaf [10, 16]: 100 | Plant response rating, Cupgrass, Woolly [11, 14]: 35 | Cupgrass, Woolly plant response rating (0 to 100 scale) [11, 15]: 50 | Plant response rating, Cupgrass, Woolly [11, 17]: 65 | Plant response rating, Cupgrass, Woolly [11, 16]: 75 | Plant response rating, Nutsedge, Yellow [12, 14]: 35 | Nutsedge, Yellow plant response rating (0 to 100 scale) [12, 15]: 55 | Plant response rating, Nutsedge, Yellow [12, 16]: 75 | Plant response rating, Lambsquarters [13, 14]: 95 | Lambsquarters plant response rating (0 to 100 scale) [13, 15]: 98 | Plant response rating, Lambsquarters [13, 16]: 100

CC(C)n1c(-c2ccccc2)ncc(C(=O)C2=C(O)CCCC2=O)c1=O [Compound 95]
Plant response rating, Surinam Grass [1, 14]: 45 | Surinam Grass plant response rating (0 to 100 scale) [1, 15]: 45 | Plant response rating, Surinam Grass [1, 16]: 70 | Plant response rating, Pigweed [2, 14]: 85 | Pigweed plant response rating (0 to 100 scale) [2, 15]: 98 | Plant response rating, Pigweed [2, 16]: 100 | Plant response rating, Bromegrass, Downy [3, 14]: 0 | Bromegrass, Downy plant response rating (0 to 100 scale) [3, 15]: 0 | Plant response rating, Bromegrass, Downy [3, 17]: 0 | Plant response rating, Bromegrass, Downy [3, 16]: 0 | Plant response rating, Foxtail, Green [4, 14]: 20 | Foxtail, Green plant response rating (0 to 100 scale) [4, 15]: 50 | Plant response rating, Foxtail, Green [4, 16]: 90 | Plant response rating, Crabgrass, Large [5, 14]: 45 | Crabgrass, Large plant response rating (0 to 100 scale) [5, 15]: 65 | Plant response rating, Crabgrass, Large [5, 17]: 75 | Plant response rating, Crabgrass, Large [5, 16]: 80 | Plant response rating, Ragweed [6, 14]: 75 | Ragweed plant response rating (0 to 100 scale) [6, 15]: 80 | Plant response rating, Ragweed [6, 16]: 95 | Plant response rating, Ryegrass, Italian [7, 14]: 0 | Ryegrass, Italian plant response rating (0 to 100 scale) [7, 15]: 0 | Plant response rating, Ryegrass, Italian [7, 16]: 0 | Plant response rating, Goosegrass [8, 14]: 65 | Goosegrass plant response rating (0 to 100 scale) [8, 15]: 75 | Plant response rating, Goosegrass [8, 16]: 90 | Plant response rating, Wheat [9, 14]: 0 | Wheat plant response rating (0 to 100 scale) [9, 15]: 0 | Plant response rating, Wheat [9, 16]: 0 | Plant response rating, Velvetleaf [10, 14]: 85 | Velvetleaf plant response rating (0 to 100 scale) [10, 15]: 95 | Plant response rating, Velvetleaf [10, 16]: 100 | Plant response rating, Cupgrass, Woolly [11, 14]: 45 | Cupgrass, Woolly plant response rating (0 to 100 scale) [11, 15]: 55 | Plant response rating, Cupgrass, Woolly [11, 17]: 65 | Plant response rating, Cupgrass, Woolly [11, 16]: 65 | Plant response rating, Nutsedge, Yellow [12, 14]: 75 | Nutsedge, Yellow plant response rating (0 to 100 scale) [12, 15]: 75 | Plant response rating, Nutsedge, Yellow [12, 16]: 85 | Plant response rating, Lambsquarters [13, 14]: 80 | Lambsquarters plant response rating (0 to 100 scale) [13, 15]: 98 | Plant response rating, Lambsquarters [13, 16]: 100

Source: patent US8952024B2, “Herbicidal pyrimidone derivatives” (E I du Pont de Nemours and Company, priority 2009, dated 2015)
